The record followed here is PubChem BioAssay AID256 (DTP/NCI, 2004).

Values joined by “and” are separate entries in the source; they are usually repeats but may differ in a detail not shown here. Equal entries are not always repeated. Inconclusive results and toxic doses are left out.

The test system of the test is CD2F1 mice, L1210 leukemia ip, survival T/C. Description: NCI In Vivo Anticancer Drug Screen. Data for tumor model L1210 Leukemia (intraperitoneal) in CD2F1 (CDF1) mice. To be noted: higher = longer survival. The procedure, abridged: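 Mice carrying a transplanted tumor received test compound or vehicle alone. The value is the measurement in the treated group divided by that in the vehicle-treated control group.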

[1] abbreviates: endpoint: mean survival time, dose: 100.0 mg/kg/injection, schedule: Q01DX001 (ip), vehicle: saline.
[2] abbreviates: endpoint: mean survival time, dose: 200.0 mg/kg/injection, schedule: Q01DX001 (ip), vehicle: saline.
The mark [3] stands for this setting: endpoint: mean survival time, dose: 400.0 mg/kg/injection, schedule: Q01DX001 (ip), vehicle: saline.
The mark [4] stands for this setting: endpoint: mean survival time, dose: 100.0 mg/kg/injection, schedule: Q01DX009 (ip), vehicle: saline with Tween-80.
[5] abbreviates: endpoint: mean survival time, dose: 200.0 mg/kg/injection, schedule: Q01DX009 (ip), vehicle: saline with Tween-80.
Where [6] appears, read: endpoint: mean survival time, dose: 400.0 mg/kg/injection, schedule: Q01DX009 (ip), vehicle: saline with Tween-80.
The mark [7] stands for this setting: endpoint: mean survival time, dose: 100.0 mg/kg/injection, schedule: Q04DX003 (ip), vehicle: saline with Tween-80.
The mark [8] stands for this setting: endpoint: mean survival time, dose: 200.0 mg/kg/injection, schedule: Q04DX003 (ip), vehicle: saline with Tween-80.
[9] abbreviates: endpoint: mean survival time, dose: 400.0 mg/kg/injection, schedule: Q04DX003 (ip), vehicle: saline with Tween-80.

Regarding `Nc1c(Cl)cc(Cl)cc1C(=O)O`, the T/C is 102 % of control under setting [1], 100 % of control under setting [2] and 104 % of control under setting [3].

For `COc1ccc(C(=O)/C=C/c2ccc3cc(OC)c(OC)cc3c2)cc1OC`, the T/C reads like this: (endpoint: mean survival time, dose: 25.0 mg/kg/injection, schedule: Q01DX009 (ip), vehicle: water) 98 % of control; (endpoint: mean survival time, dose: 50.0 mg/kg/injection, schedule: Q01DX009 (ip), vehicle: water) 102 % of control.

For `CN(Cc1cnc2nc(N)nc(N)c2n1)c1ccc(C(=O)NC(CCC(N)=O)C(=O)O)cc1` (configuration not stated), the T/C runs as follows: (endpoint: mean survival time, dose: 1.0 mg/kg/injection, schedule: Q01DX009 (ip), vehicle: sodium bicarbonate) 102 % of control; (endpoint: mean survival time, dose: 10.0 mg/kg/injection, schedule: Q01DX009 (ip), vehicle: sodium bicarbonate) 118 % of control; (endpoint: mean survival time, dose: 50.0 mg/kg/injection, schedule: Q01DX009 (ip), vehicle: sodium bicarbonate) 150 % of control; (endpoint: mean survival time, dose: 180.0 mg/kg/injection, schedule: Q04DX003 (ip), vehicle: sodium bicarbonate) 158 % of control; (endpoint: mean survival time, dose: 268.0 mg/kg/injection, schedule: Q04DX003 (ip), vehicle: sodium bicarbonate) 114 % of control; (endpoint: mean survival time, dose: 400.0 mg/kg/injection, schedule: Q04DX003 (ip), vehicle: sodium bicarbonate) 110 % of control.

In the case of `Nc1ccc(CCC(=O)Nc2ccc(S(=O)(=O)F)cc2)cc1`, the T/C is, setting by setting: under setting [1], 97 % of control; under setting [2], 102 % of control; under setting [3], 97 % of control.

Consider `CCCOC(=O)c1cc([N+](=O)[O-])cc([N+](=O)[O-])c1Sc1ncnc2nc[nH]c12`, for which the T/C (endpoint: mean survival time, dose: 0.63 mg/kg/injection, schedule: Q01DX005 (ip), vehicle: other) was 102 % of control; the T/C (endpoint: mean survival time, dose: 1.25 mg/kg/injection, schedule: Q01DX005 (ip), vehicle: other) is 105 % of control; the T/C (endpoint: mean survival time, dose: 2.5 mg/kg/injection, schedule: Q01DX005 (ip), vehicle: other) is 102 % of control; the T/C (endpoint: mean survival time, dose: 5.0 mg/kg/injection, schedule: Q01DX005 (ip), vehicle: other) is 105 % of control; the T/C (endpoint: mean survival time, dose: 10.0 mg/kg/injection, schedule: Q01DX005 (ip), vehicle: other) was 105 % of control; the T/C (endpoint: mean survival time, dose: 20.0 mg/kg/injection, schedule: Q01DX005 (ip), vehicle: other) was 106 % of control. Besides, where the note is “endpoint: mean survival time, dose: 40.0 mg/kg/injection, schedule: Q01DX005 (ip), vehicle: other”, the T/C was 113 % of control.

On to `CCOC(=O)C[Se]CC(=O)OCC`, for which the T/C by setting is: (endpoint: mean survival time, dose: 100.0 mg/kg/injection, schedule: Q01DX001 (ip), vehicle: saline with Tween-80) 100 % of control; (endpoint: mean survival time, dose: 200.0 mg/kg/injection, schedule: Q01DX001 (ip), vehicle: saline with Tween-80) 103 % of control.

Take `O=NC1CC=CC1Cl` (configuration not stated): the T/C runs as follows: under setting [1], 96 % of control and 98 % of control; under setting [2], 107 % of control and 102 % of control; under setting [3], 101 % of control and 98 % of control.

With `[S-]c1n[n+](-c2ccccc2)c(-c2ccccc2)s1`, the T/C is 95 % of control (endpoint: mean survival time, dose: 75.0 mg/kg/injection, schedule: Q01DX001 (ip), vehicle: saline with Tween-80); 96 % of control (endpoint: mean survival time, dose: 150.0 mg/kg/injection, schedule: Q01DX001 (ip), vehicle: saline with Tween-80); 102 % of control (endpoint: mean survival time, dose: 300.0 mg/kg/injection, schedule: Q01DX001 (ip), vehicle: saline with Tween-80).

As for `O=C(/C=C/c1ccco1)c1ccc2ccccc2c1`, the T/C was 102 % of control under setting [1], 94 % of control under setting [2] and 94 % of control under setting [3].

For `C=C(Cl)CSCCO`, the T/C was 100 % of control under setting [4], 104 % of control under setting [5] and 98 % of control under setting [6].

For the compound `O=C(CN1C(=O)CCC1=O)NCCc1cccc(OCc2ccccc2)c1`, the T/C by setting is: under setting [4], 94 % of control; under setting [7], 97 % of control; under setting [5], 89 % of control; under setting [8], 97 % of control; under setting [6], 91 % of control; under setting [9], 97 % of control.

In the case of `O=C(O)c1cccc2ccc(F)cc12`, the T/C (endpoint: median survival time, dose: 50.0 mg/kg/injection, schedule: Q04DX002 (ip), vehicle: saline with Tween-80) is 100 % of control; the T/C (endpoint: median survival time, dose: 100.0 mg/kg/injection, schedule: Q04DX002 (ip), vehicle: saline with Tween-80) is 100 % of control; the T/C (endpoint: median survival time, dose: 200.0 mg/kg/injection, schedule: Q04DX002 (ip), vehicle: saline with Tween-80) is 100 % of control; the T/C (endpoint: median survival time, dose: 400.0 mg/kg/injection, schedule: Q04DX002 (ip), vehicle: saline with Tween-80) was 88 % of control.

Turning to `Cc1cc2nc(C(=C(c3nc4cc(C)c(C)cc4[nH]3)c3nc4cc(C)c(C)cc4[nH]3)c3nc4cc(C)c(C)cc4[nH]3)[nH]c2cc1C`, the T/C under setting [7] is 97 % of control, the T/C under setting [8] is 94 % of control and the T/C under setting [9] was 89 % of control.

Turning to `CCC(=O)OC1(c2ccccc2)CCN(C/C=C/c2ccccc2[N+](=O)[O-])CC1`, the T/C was 100 % of control (endpoint: median survival time, dose: 12.5 mg/kg/injection, schedule: Q04DX003 (ip), vehicle: saline with Tween-80); 88 % of control (endpoint: median survival time, dose: 25.0 mg/kg/injection, schedule: Q04DX003 (ip), vehicle: saline with Tween-80); 100 % of control (endpoint: median survival time, dose: 50.0 mg/kg/injection, schedule: Q04DX003 (ip), vehicle: saline with Tween-80); 100 % of control (endpoint: median survival time, dose: 100.0 mg/kg/injection, schedule: Q04DX003 (ip), vehicle: saline with Tween-80).

In the case of `CC(C)[S][Pb]([c]1ccccc1)([c]1ccccc1)[c]1ccccc1`, the T/C runs as follows: (endpoint: mean survival time, dose: 1.25 mg/kg/injection, schedule: Q01DX009 (ip), vehicle: gum acacia) 93 % of control; (endpoint: mean survival time, dose: 2.5 mg/kg/injection, schedule: Q01DX009 (ip), vehicle: gum acacia) 98 % of control; (endpoint: mean survival time, dose: 5.0 mg/kg/injection, schedule: Q01DX009 (ip), vehicle: gum acacia) 96 % of control.

Turning to `Cc1cc(=O)c2c(ccc3[nH]c(-c4ccco4)nc32)[nH]1`, the T/C is 95 % of control (endpoint: mean survival time, dose: 100.0 mg/kg/injection, schedule: Q04DX002 (ip), vehicle: saline with Tween-80); 102 % of control (endpoint: mean survival time, dose: 200.0 mg/kg/injection, schedule: Q04DX002 (ip), vehicle: saline with Tween-80); 91 % of control (endpoint: mean survival time, dose: 400.0 mg/kg/injection, schedule: Q04DX002 (ip), vehicle: saline with Tween-80).

Take `Nc1cc(C(F)(F)F)ccc1/C(=C/c1ccc(Cl)cc1)C(=O)O`: the T/C (endpoint: mean survival time, dose: 75.0 mg/kg/injection, schedule: Q04DX003 (ip), vehicle: saline) is 103 % of control and the T/C (endpoint: mean survival time, dose: 150.0 mg/kg/injection, schedule: Q04DX003 (ip), vehicle: saline) is 102 % of control.

For `O=C(CCN1C(=O)c2ccccc2C1=O)c1ccc(O)cc1`, the T/C is, setting by setting: under setting [7], 93 % of control; under setting [8], 98 % of control; under setting [9], 92 % of control.

For `O=CN/N=C/c1ccc2c(c1)CCC2`, the T/C was 107 % of control under setting [7], 96 % of control under setting [8] and 96 % of control under setting [9].

Take `COc1cc(/C=C/C(C)=N/Nc2ccc([N+](=O)[O-])cc2[N+](=O)[O-])ccc1O`: the T/C under setting [7] is 95 % of control, the T/C under setting [8] was 94 % of control and the T/C under setting [9] was 95 % of control.

Turning to `CCCCCCCCC1SC1CCCCCCCCOC(=O)CCCCCCCC1SC1CCCCCCCC` (configuration not stated), the T/C runs as follows: (endpoint: mean survival time, dose: 100.0 mg/kg/injection, schedule: Q04DX003 (ip), vehicle: Klucel (hydroxypropylcellulose) (HPC)) 95 % of control; (endpoint: mean survival time, dose: 200.0 mg/kg/injection, schedule: Q04DX003 (ip), vehicle: Klucel (hydroxypropylcellulose) (HPC)) 93 % of control; (endpoint: mean survival time, dose: 400.0 mg/kg/injection, schedule: Q04DX003 (ip), vehicle: Klucel (hydroxypropylcellulose) (HPC)) 102 % of control.

For `CCC[CH2][Sn]1([CH2]CCC)[O]C(=O)c2c(Cl)c(Cl)c(Cl)c(Cl)c2C(=O)[O]1`, the T/C (endpoint: mean survival time, dose: 5.0 mg/kg/injection, schedule: Q01DX001 (ip), vehicle: saline) is 101 % of control; the T/C (endpoint: mean survival time, dose: 10.0 mg/kg/injection, schedule: Q01DX001 (ip), vehicle: saline) was 101 % of control; the T/C (endpoint: mean survival time, dose: 20.0 mg/kg/injection, schedule: Q01DX001 (ip), vehicle: saline) was 109 % of control.

In the case of `CCNCCNc1ccc(NCCNCC)c2c1C(=O)c1ccccc1C2=O`, the T/C (endpoint: mean survival time, dose: 2.0 mg/kg/injection, schedule: Q01DX009 (ip), vehicle: acid diluted with saline) is 122 % of control; the T/C (endpoint: mean survival time, dose: 4.0 mg/kg/injection, schedule: Q01DX009 (ip), vehicle: acid diluted with saline) was 122 % of control and 123 % of control.

As to `O=C1OC(=O)C2CCCC1C2`, the T/C under setting [1] is 105 % of control, the T/C under setting [2] was 105 % of control and the T/C under setting [3] is 100 % of control.

With `COc1ccc(SC2=CC(=O)c3ccccc3C2=O)cc1`, the T/C is 97 % of control (endpoint: mean survival time, dose: 75.0 mg/kg/injection, schedule: Q01DX001 (ip), vehicle: other) and 95 % of control (endpoint: mean survival time, dose: 150.0 mg/kg/injection, schedule: Q01DX001 (ip), vehicle: other).
